What follows are molecules tested against T1, GCS enzyme contained within Golgi preparations isolated from human A375 malignant melanoma skin cells (Homo sapiens, UniProt Q16739) (assay: UDP-Glo glucosylceramide synthase biochemical assay). Conditions: crude Golgi preparation from A375 cells; C6 ceramide and UDP-glucose substrates; 20 h incubation at room temperature; UDP detected by luminescence.
T1 construct: endogenous levels of GCS enzyme contained within Golgi preparations isolated from human A375 malignant melanoma skin cells; endogenous in cells; host or cells: A375 human malignant melanoma cells (crude Golgi preparation)
T1 sequence (Q16739 1-394): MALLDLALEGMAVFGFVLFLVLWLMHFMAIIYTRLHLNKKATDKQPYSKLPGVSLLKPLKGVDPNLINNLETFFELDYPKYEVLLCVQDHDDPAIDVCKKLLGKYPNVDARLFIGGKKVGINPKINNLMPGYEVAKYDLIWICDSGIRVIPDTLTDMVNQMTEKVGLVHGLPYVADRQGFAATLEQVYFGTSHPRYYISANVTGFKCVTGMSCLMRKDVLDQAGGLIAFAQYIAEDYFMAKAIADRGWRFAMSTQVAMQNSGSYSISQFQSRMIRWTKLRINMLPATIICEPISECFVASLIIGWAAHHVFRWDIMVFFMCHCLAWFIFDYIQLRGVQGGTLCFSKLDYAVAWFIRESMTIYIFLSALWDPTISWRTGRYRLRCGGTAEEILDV
Source text: UDP-Glo™ Glucosylceramide Synthase Biochemical Assay
A UDP-Glo™ glucosylceramide synthase biochemical assay was utilized to evaluate the effect of test compounds on the activity of endogenous levels of GCS enzyme contained within Golgi preparations isolated from human A375 malignant melanoma skin cells. The UDP-Glo™ glucosylceramide synthase assay uses UDP-Glucose as a nucleotide-glycosyl donor and ceramide as substrate acceptor molecules. In the reaction, glucosylceramide synthase (GCS) transfers glucose from UDP-Glucose to ceramide. Glucosylceramide and UDP are released as products.
Using Promega's UDP-Glo™ Glycosyltransferase assay kit (Promega Corporation, Madison, WI, USA (Promega)), GCS activity was indirectly measured by detecting the amount of UDP produced. An aliquot of GCS enzyme (1.5 μg crude golgi preparation, total protein) and titrated test compound were aliquoted to each well and incubated for 30 minutes at room temperature. […] An equivalent volume of substrate mixture was then added to each well. Following a 20 h incubation at room temperature to allow for GCS turnover of substrate, an equal volume of UDP detection reagent (Promega) was added to each well and incubated for an additional 75 minutes at room temperature to simultaneously convert the accumulated UDP product into ATP and generate light in a luciferase reaction. The generated light was detected using a luminometer. […] luminescence values (RLUs) were normalized to mean “min” and “max” effects, as determined on each plate. […] Values for % Emax and EC50 were determined by best-fitting the normalized data to a curve in Activity Base along a four-parameter logistic nonlinear regression (4PL) model (based on the Levenberg-Marquardt algorithm and defined by the equation below):
[formula] where: n is 4 PMin (bottom of the curve); m is 4 PMax (top of the curve); i is IP (inflection point of curve); and p is slope. See Levenberg, K., “A Method for the Solution of Certain Problems in Least Squares”, Quart. Appl. Math. […] Math.

| EC50 [nM] | SMILES |
| --- | --- |
| 630 | Cc1nnc(-c2ccc(-c3cccc4c3C(=O)N([C@@H](CO)C3CC3)C4)cc2)o1 [Compound 50, (R)-2-(1-cyclopropyl-2-hydroxyethyl)-7-(4-(5-methyl-1,3,4-oxadiazol-2-yl)phenyl)isoindolin-1-one] |
| 5.2 | Cc1cnc2c(c1C(=O)Nc1cccc3c1C(=O)N(C(C1CC1)C1CC1)C3)OCO2 [Compound 117, N-(2-(dicyclopropylmethyl)-3-oxoisoindolin-4-yl)-6-methyl-[1,3]dioxolo[4,5-b]pyridine-7-carboxamide] |
| 9.1 | Cn1cc2c(C(=O)Nc3cc(F)cc4c3C(=O)N([C@H](C3CC3)C(C)(C)O)C4)cccc2n1 [Compound 161, (R)-N-(2-(1-cyclopropyl-2-hydroxy-2-methylpropyl)-6-fluoro-3-oxoisoindolin-4-yl)-2-methyl-2H-indazole-4-carboxamide] |
| 97 | Cc1cc(-c2cccc3c2C(=O)N(CCC2CN4CCC2CC4)C3)ccn1 (racemic) [Compound 54, (R and S)-7-(2-methylpyridin-4-yl)-2-(2-(quinuclidin-3-yl)ethyl)isoindolin-1-one] |
| 40 | CN1Cc2cc(-c3cccc4c3C(=O)N([C@H](C3CC3)C(C)(C)O)C4)ccc2CC1=O [Compound 74, (R)-7-(2-(1-cyclopropyl-2-hydroxy-2-methylpropyl)-3-oxoisoindolin-4-yl)-2-methyl-1,4-dihydroisoquinolin-3(2H)-one] |
| 0.41 | COc1ccc(F)c(F)c1C(=O)Nc1cccc2c1C(=O)N(C(C1CC1)C(C)(C)O)C2 (single isomer, unassigned) [Compound 112, (R or S)-N-(2-(1-cyclopropyl-2-hydroxy-2-methylpropyl)-3-oxoisoindolin-4-yl)-2,3-difluoro-6-methoxybenzamide] |
| 0.43 | Cc1nn(C)c2ccc(-c3ccc(F)c4c3C(=O)N([C@H](C3CC3)C(C)(C)O)C4)cc12 [Compound 56, (R)-2-(1-cyclopropyl-2-hydroxy-2-methylpropyl)-7-(1,3-dimethyl-1H-indazol-5-yl)-4-fluoroisoindolin-1-one] |
| 120 | O=C(Nc1cccc2c1C(=O)N(CC1CC1)C2)c1c(Cl)cncc1Cl [Compound 139, 3,5-dichloro-N-(2-(cyclopropylmethyl)-3-oxoisoindolin-4-yl)isonicotinamide] |
| 100 | CC(C)(O)[C@@H](C1CC1)N1Cc2cccc(-c3ccc(-c4ncon4)cc3)c2C1=O [Compound 83, (R)-7-(4-(1,2,4-oxadiazol-3-yl)phenyl)-2-(1-cyclopropyl-2-hydroxy-2-methylpropyl)isoindolin-1-one] |
| 8.9 | Cc1cc2c(c(-c3ccc(-c4nnc(C)o4)cc3)c1)C(=O)N([C@H](C1CC1)C(C)(C)O)C2 [Compound 61, (R)-2-(1-Cyclopropyl-2-hydroxy-2-methylpropyl)-5-methyl-7-(4-(5-methyl-1,3,4-oxadiazol-2-yl)phenyl)isoindolin-1-one] |
| 720 | CCOc1ccccc1C(=O)Nc1cccc2c1C(=O)N(CC1(O)COC1)C2 [Compound 106, 2-ethoxy-N-(2-((3-hydroxyoxetan-3-yl)methyl)-3-oxoisoindolin-4-yl)benzamide] |
| 160 | CCOc1ccccc1C(=O)Nc1cccc2c1C(=O)N(C(CO)C1CCC1)C2 (racemic) [Compound 101, (R and S)-N-(2-(1-cyclobutyl-2-hydroxyethyl)-3-oxoisoindolin-4-yl)-2-ethoxybenzamide] |
| 390 | O=C(Nc1cccc2c1C(=O)N(CC1CC1)C2)c1ccnc2c1CCC2 [Compound 146, N-(2-(cyclopropylmethyl)-3-oxoisoindolin-4-yl)-6,7-dihydro-5H-cyclopenta[b]pyridine-4-carboxamide] |
| 61 | CC(C)(O)C(C1CC1)N1Cc2cncc(NC(=O)c3ccnc4c3CCC4)c2C1=O (single isomer, unassigned) [Compound 151, (R or S)—N-(2-(1-Cyclopropyl-2-hydroxy-2-methylpropyl)-1-oxo-2,3-dihydro-1H-pyrrolo[3,4-c]pyridin-7-yl)-6,7-dihydro-5H-cyclopenta[b]pyridine-4-carboxamide] |
| 6.8 | CC(C)(O)C(C1CC1)N1Cc2cccc(/C=C/c3c(Cl)cnc4c3OCO4)c2C1=O (single isomer, unassigned) [Compound 174, (R or S)-(E)-7-(2-(6-Chloro-[1,3]dioxolo[4,5-b]pyridin-7-yl)vinyl)-2-(1-cyclopropyl-2-hydroxy-2-methylpropyl)isoindolin-1-one] |
| 48 | Cn1cc(-c2ccc(-c3ccnc4c3C(=O)N([C@H](C3CC3)C(C)(C)O)C4)cc2)cn1 [Compound 34, (R)-6-(1-cyclopropyl-2-hydroxy-2-methylpropyl)-4-(4-(1-methyl-1H-pyrazol-4-yl)phenyl)-6,7-dihydro-5H-pyrrolo[3,4-b]pyridin-5-one] |
| 48 | Cc1nn(C)c(C)c1-c1cccc2c1C(=O)N(CCC1CN3CCC1CC3)C2 (racemic) [Compound 53, (R and S)-2-(2-(quinuclidin-3-yl)ethyl)-7-(1,3,5-trimethyl-1H-pyrazol-4-yl)isoindolin-1-one] |
| 14 | Cc1cnc2c(c1CCc1cccc3c1C(=O)N(C(C1CC1)C(C)(C)O)C3)OCO2 (single isomer, unassigned) [Compound 176, (R or S)-2-(1-Cyclopropyl-2-hydroxy-2-methylpropyl)-7-(2-(6-methyl-[1,3]dioxolo[4,5-b]pyridin-7-yl)ethyl)isoindolin-1-one] |
| 95 | COc1cc(C#N)cc(-c2nccc3c2C(=O)N(C(C2CC2)C(C)(C)O)C3)c1 (single isomer, unassigned) [Compound 30, (R or S)-3-(2-(1-cyclopropyl-2-hydroxy-2-methylpropyl)-3-oxo-2,3-dihydro-1H-pyrrolo[3,4-c]pyridin-4-yl)-5-methoxybenzonitrile] |
| 26 | CC(C)[C@H](CO)N1Cc2cccc(NC(=O)c3c(Cl)ccc(F)c3Cl)c2C1=O [Compound 124, (R)-2,6-dichloro-3-fluoro-N-(2-(1-hydroxy-3-methylbutan-2-yl)-3-oxoisoindolin-4-yl)benzamide] |
| 45 | Cc1ccc(-c2ccc(-c3cccc4c3C(=O)N(C(C3CC3)C(C)(C)O)C4)cc2)nn1 (racemic) [Compound 18, (R and S)-2-(1-cyclopropyl-2-hydroxy-2-methylpropyl)-7-(4-(6-methylpyridazin-3-yl)phenyl)isoindolin-1-one] |
| 38 | C[C@@H](N1Cc2cccc(NC(=O)c3c(C(F)(F)F)cnc4ccccc34)c2C1=O)C(C)(C)O [Compound 127, (R)-N-(2-(3-hydroxy-3-methylbutan-2-yl)-3-oxoisoindolin-4-yl)-3-(trifluoromethyl)quinoline-4-carboxamide] |
| 9.7 | CC(C)(O)C(C1CC1)N1Cc2cccc(C#Cc3ccnc4c3CCC4)c2C1=O (single isomer, unassigned) [Compound 172, (R or S)-2-(1-Cyclopropyl-2-hydroxy-2-methylpropyl)-7-((6,7-dihydro-5H-cyclopenta[b]pyridin-4-yl)ethynyl)isoindolin-1-one] |
| 450 | CCOc1ccccc1C(=O)Nc1cccc2c1C(=O)N([C@@H]1CCCC[C@@H]1O)C2 [Compound 103, 2-ethoxy-N-(2-((1R,2S)-2-hydroxycyclohexyl)-3-oxoisoindolin-4-yl)benzamide] |
| 21 | Cc1cnc2c(c1NCc1cccc3c1C(=O)N(C(C1CC1)C(C)(C)O)C3)OCO2 (single isomer, unassigned) [Compound 178, (R or S)-2-(1-Cyclopropyl-2-hydroxy-2-methylpropyl)-7-(((6-methyl-[1,3]dioxolo[4,5-b]pyridin-7-yl)amino)methyl)isoindolin-1-one] |
| 59 | Cc1cnc2c(c1C(=O)Nc1cccc3c1C(=O)N([C@@H](C)C1CC1)C3)OCO2 [Compound 134, (S)-N-(2-(1-cyclopropylethyl)-3-oxoisoindolin-4-yl)-6-methyl-[1,3]dioxolo[4,5-b]pyridine-7-carboxamide] |

| SMILES | EC50 [nM] |
| --- | --- |
| O=C(Nc1cccc2c1C(=O)N(c1ccc(F)cc1)C2)OC1CN2CCC1CC2 (stereo not drawn) [Compound 150, Quinuclidin-3-yl(2-(4-fluorophenyl)-3-oxoisoindolin-4-yl)carbamate] | 740 |

Reference: patent publication US12679807B2 (MERCK SHARP & DOHME LLC, priority 2020, dated 2026)
